The record followed here is PMC11791976, “CDC20‐Mediated Selective Autophagy Degradation of PBRM1 Affects Immunotherapy for Renal Cell Carcinoma” (Advanced Science, 2024).

Molecules are shown by their SMILES. Where a SMILES comes first, the peptide text is derived from it. The star is where a group is joined. Cbz = O=C(OCc1ccccc1)*

The test system of this assay is PBRM1. In words: Immunoblot of PBRM1 / CDC20 protein level in cells treated with tool compounds. The assay is classed as cell-based. As to conditions: for CDC20 protein level / PBRM1 protein level: cell cycle block, 24 h, Figure S1J,K. The protocol: Figure 3 Autophagy selectively degrades PBRM1 via the autophagic receptor p62 in a CDC20‐dependent manner. A) IB analysis of WCL lysates derived from WT or CDC20 knockdown 786‐O and 769‐P cells treated with NH4Cl (20 mM, 24 h) before harvesting. B) IB analysis of WCL lysates derived from 786‐O and 769‐P cells treated with NH4Cl (20 mM) for indicated hours. C) IB analysis of WCL lysates derived from 786‐O and 769‐P cells treated with chloroquine (CQ, 50 µM) for indicated hours. D) IB analysis of WCL lysates derived from 786‐O and 769‐P cells treated with glucose starvation (G.S.) for indicated hours. E) IB analysis of WCL lysates derived from 786‐O and 769‐P cells treated with serum starvation (S.S.) for indicated hours. F) IB analysis of WCL lysates derived from wild‐type (WT) or ATG5 knockdown 786‐O and 769‐P cells treated with serum starvation (S.S.) for indicated hours before harvesting. G) IB analysis of WCL and anti‐HA immunoprecipitates derived from 293T cells transfected with HA‐p62 and V5‐PBRM1. H) IB analysis of WCL and anti‐Flag immunoprecipitates derived from 293T cells transfected with Flag‐p62 and V5‐PBRM1. I) IB analysis of WCL lysates derived from shScr or p62 knockdown 786‐O and 769‐P cells using shRNA. J) IB analysis of WCL lysates derived from NC or p62 knockdown 786‐O cells using siRNA. NC, negative control. K,L) Immunoblotting analysis (K) and quantification (L) of cell lysates of WT and p62 knockdown 786‐O cells treated with cycloheximide (CHX, 20 µg ml^−1) at indicated time points. M) IB analysis of WCL and GST‐pull‐down products derived from 293T cells transfected with GST‐p62 and V5‐PBRM1. 24 h post transfection, cells were treated with serum starvation (S.S.) for 24 h before harvesting the cells. N) IB analysis of WCL and GST‐pull‐down products derived from 293T cells transfected with GST‐p62, HA‐CDC20 and V5‐PBRM1. O) IB analysis of WCL and GST‐pull‐down products derived from WT and CDC20 knockdown 293T cells transfected with GST‐p62 and V5‐PBRM1. P) Schematic representation of truncated constructs of p62 for mapping the interaction domain with PBRM1. Q) IB analysis of WCL and GST‐pull‐down products derived from 293T cells transfected with V5‐PBRM1 and indicated constructs of GST‐p62 plasmids. R) Schematic representation of truncated constructs of p62 for mapping the interaction domain with PBRM1. S) IB analysis of WCL and GST‐pull‐down products derived from 293T cells transfected with V5‐PBRM1 and indicated constructs of GST‐p62 plasmids.
Cells were washed 3 times with ice‐cold phosphate‐buffered saline (PBS). The appropriate RIPA or IP buffer was added, which was mixed with protease and phosphatase inhibitors in advance. After centrifugation, the cell lysate supernatant was collected and checked using the BCA qualification system. The appropriate protein‐loading buffer was added to the protein lysates and denatured in a boiling water bath for 5 min. Each sample contained 30 µg protein, which was loaded onto 8% or 10% SDS‐PAGE gels and transferred to a polyvinylidene fluoride (PVDF) membrane. Then, the PVDF membranes were […] in fresh milk for 1 h at room temperature. Primary antibodies of the targets were added to the PVDF membranes and incubated overnight at 4 °C. The cells were rinsed 3 times with TBST buffer, followed by incubation with peroxidase‐conjugated antibodies at room temperature for 1 h. After washing, the PVDF membranes were analyzed and visualized using an ECL system (Bio‐Rad, Hercules, CA, USA).
Supplementary Figure 1. PBRM1 fluctuates during cell cycle progression. (A) IB analysis of WCL and anti-HA immunoprecipitates derived from 293T cells transfected with HA-CDC20 and Flag-PBRM1. (B) Schematic representation of truncated constructs of CDC20 for mapping the interaction domain with PBRM1. (C) IB analysis of WCL and GST-pull-down products derived from 293T cells transfected with Flag-PBRM1 and indicated constructs of GST-CDC20. Vec, vector. […]
(In western blotting, separated proteins are transferred to a membrane and probed.)

The mark [1] stands for this setting: 786-O and 769-P cells, NH4Cl 20 mM, chloroquine 50 µM, indicated hours.

On to `CC(C)C[C@@H](C=O)NC(=O)[C@H](CC(C)C)NC(=O)[C@H](CC(C)C)NC(=O)OCc1ccccc1` [MG132] (Cbz-Leu-Leu-Leu-aldehyde), for which the “protein level of PBRM1” value (renca and 786-O cells, MG132 10 μM 12 hours, Figure S5O) was “enhance the protein level of PBRM1”.

Turning to `Cl.N` [NH4Cl, ammonium chloride], the “protein level of PBRM1” value under setting [1] is “increased”.

For the compound `CCN(CC)CCCC(C)Nc1ccnc2cc(Cl)ccc12` (stereo not shown) [chloroquine], the “protein level of PBRM1” value under setting [1] is “upregulated”.

`COC(=O)Nc1nc2ccc(C(=O)c3cccs3)cc2[nH]1` [nocodazole]: under “786-O and 769-P cells”, the CDC20 protein level result is reported as “decreased” and the PBRM1 protein level result is “upregulated”.

Take `CC(=O)O[C@H]1C(=O)[C@@]2(C)[C@H]([C@H](OC(=O)c3ccccc3)[C@]3(O)C[C@H](OC(=O)[C@H](O)[C@@H](NC(=O)c4ccccc4)c4ccccc4)C(C)=C1C3(C)C)[C@]1(OC(C)=O)CO[C@@H]1C[C@@H]2O` [taxol, paclitaxel]: where the note is “786-O and 769-P cells”, the CDC20 protein level result is recorded as “decreased” and the PBRM1 protein level entry was “upregulated”.
